Assays:
[1] = tested on: RKO human colon adenocarcinoma cells (RKO p27 subclone, uninduced); experiment: Alamar Blue cell viability assay, anti-proliferative/cytotoxic activity, proliferating RKO p27 cells (uninduced); type: cell-based; conditions: RKOp27, absence of Ponasterone A, 72 hours incubation
Procedure: The anti-proliferative/cytotoxic activity of the compounds described herein can be tested on subclones of RKO human colon adenocarcinoma cells (Schmidt et al., Oncogene 19, 2423-2429; 2000) using the Alamar Blue cell viability assay (described in O'Brien et al. Eur J Biochem 267, 5421-5426, 2000). The compounds are dissolved as 10 mM solutions in DMSO and subsequently diluted in semi-logarithmic steps. DMSO dilutions are further diluted 1:100 into Dulbecco's modified Eagle's medium (DMEM) containing 10% fetal calf serum to a final concentration twice as much as the final concentration in the test. RKO subclones are seeded into 96 well flat bottom plates at a density of 4000 cells per well in a volume of 50 μl per well. 24 hours after seeding the 50 μl each of the compound dilutions in DMEM medium are added into each well of the 96 well plate. Each compound dilution is tested as quadruplicates. Wells containing untreated control cells are filled with 50 μl DMEM medium containing 1% DMSO. The cells are then incubated with the substances for 72 hours at 37° C. in a humidified atmosphere containing 5% carbon dioxide. To determine the viability of the cells, 10 μl of an Alamar Blue solution (Biosource) are added and the fluorescence is measured at an extinction of 544 nm and an emission of 590 nm. For the calculation of the cell viability the emission value from untreated cells is set as 100% viability and the emission rates of treated cells are set in relation to the values of untreated cells. Viabilities are expressed as % values.
The corresponding IC50 values of the compounds for anti-proliferative/cytotoxic activity are determined from the concentration-effect curves.
(§1) Representative IC50 values for anti-proliferation/cytotoxicity determined in the aforementioned assays follow from the following table A, in which the numbers of the compounds correspond to the numbers of the examples.

[2] = tested on: RKO colon adenocarcinoma cells (RKOp27, induced); experiment: Alamar Blue cell viability assay, cell cycle specific mode of action, RKO p27 cells arrested by Ponasterone A induced p27Kip1; type: cell-based; conditions: Homo sapiens, cells arrested by ectopic p27Kip1 induced with 10 μM Ponasterone A, 72 hours incubation
Procedure: To determine the cell cycle specific mode of action, subclones of RKO colon adenocarcinoma cells (RKOp27 as described by Schmidt et al. in Oncogene 19, 2423-2429; 2000) are seeded into 96 well flat bottom plates at a density of 16000 cells per well in a volume of 50 μl per well in DMEM growth medium with 10% FCS containing 10 μM Ponasterone A. 24 hours after seeding the 50 μl each of the compound dilutions in DMEM medium are added into each well of the 96-well plate. Each compound dilution is tested as quadruplicates. Wells containing untreated control cells are filled with 50 μl DMEM medium containing 1% DMSO. The cells are then incubated with the substances for 72 hours at 37° C. in a humidified atmosphere containing 5% carbon dioxide. To determine the viability of the cells, 10 μl of an Alamar Blue solution (Biosource) are added and the fluorescence is measured at an extinction of 544 nm and an emission of 590 nm. For the calculation of the cell viability the emission value from untreated cells is set as 100% viability and the emission rates of treated cells are set in relation to the values of untreated cells. Viabilities are expressed as % values. Viability is compared of proliferating cells grown in the absence of the inducer Ponasterone A, versus viability of cells arrested by the expression of ectopic p27Kip1 induced by Ponasterone A.
as §1

IC50 [2] [µM]	SMILES	IC50 [1] [µM]
> 100	COC(=O)c1cccc([C@@H]2c3[nH]c4ccccc4c3C[C@H]3C(=O)N(C)C(=S)N23)c1 (racemic) [Compound 4, 3-((3aSR, 10RS)-2-Methyl-3-oxo-1-thioxo-2,3,3a,4,9,10-hexahydro-1H-2,9,10a-triaza-cyclopenta[b]fluoren-10-yl)-benzoic acid methyl ester]	≤ 2
> 100	COC(=O)c1cccc([C@@H]2c3[nH]c4ccccc4c3C[C@H]3C(=O)N(C)C(=S)N23)c1 [Compound 5, 3-((3aS,10R)-2-Methyl-3-oxo-1-thioxo-2,3,3a,4,9,10-hexahydro-1H-2,9,10a-triaza-cyclopenta[b]fluoren-10-yl)-benzoic acid methyl ester]	≤ 2
> 100	COC(=O)c1cc(Cl)cc([C@@H]2c3[nH]c4ccccc4c3C[C@H]3C(=O)N(C)C(=S)N23)c1 [Compound 6, 3-Chloro-5-((3aS,10R)-2-methyl-3-oxo-1-thioxo-2,3,3a,4,9,10-hexahydro-1H-2,9,10a-triaza-cyclopenta[b]fluoren-10-yl)-benzoic acid methyl ester]	≤ 2

Second part, the compound before the results:

SMILES	IC50 [2] [µM]	IC50 [1] [µM]
CN1C(=O)[C@@H]2Cc3c([nH]c4ccccc34)[C@@H](c3cccc(OC(F)(F)F)c3)N2C1=S [Compound 1, (3aS,10R)-2-Methyl-1-thioxo-10-(3-trifluoromethoxy-phenyl)-1,2,3a,4,9,10-hexahydro-2,9,10a-triaza-cyclopenta[b]fluoren-3-one]	> 100	≤ 2
COC(=O)c1ccc(OC)c([C@@H]2c3[nH]c4ccccc4c3C[C@H]3C(=O)N(C)C(=S)N23)c1 [Compound 7, 4-Methoxy-3-((3aS,10R)-2-methyl-3-oxo-1-thioxo-2,3,3a,4,9,10-hexahydro-1H-2,9,10a-triaza-cyclopenta[b]fluoren-10-yl)-benzoic acid methyl ester]	> 100	≤ 2

Reference: US20080114017A1, “Novel Indolopyridines, Benzofuranopyridines and Benzothienopyridines” (priority 2005, published 2008)
